Publication PMC10033419, “Blocking NS3–NS4B interaction inhibits dengue virus in non-human primates” (Nature, 2023)
pEC50: −log10 of the molar value. Values joined by “and” are separate entries in the source; they are usually repeats but may differ in a detail not shown here. Equal values may be shown once. Read-outs that look alike come from different tables or passages of the source.

What was measured:
[1] = ATPLite cell viability assay; type: cell-based; conditions: human, Huh-7 cells; Huh-7, n=1
Protocol: In parallel, the toxicity was measured using an ATPLite cell viability luminescence assay (PerkinElmer). The assays were performed in three different cell types (Vero, Huh-7 and THP-1/DC-SIGN) as described in ref. [3] to exclude cell-specific activity of the compound.

INF-A Taiwan/1/86 = assay: microbe, parasite or virus in culture; type: cell-based; conditions: Influenza A virus, MDCK
HIV-1 IIIB = assay: microbe, parasite or virus in culture; type: cell-based; conditions: Human immunodeficiency virus 1, IIIB, MAGI-CCR5
NS3–NS4B interaction = type: cell-based; conditions: for pEC50: single replicates, read-out: EC50 (NS3/4B interaction), IP
[2] = system: NS4A-2K-NS4B precursor cleavage; assay: microbe, parasite or virus in culture; type: cell-based, DENV-2
DENV-2 RL strain = assay: Day 3 viraemia model, high viral inoculum (10^6 PFU); type: in vivo, AG129 mice; conditions: for Av Log 10 (average): group average; for Av Log 10 (Ave/Med: median): group median
[3] = Study 1+2+3 compiled data, 0,2 mg/kg/d
[4] = Study 1+2+3 compiled data, 0,2 mg/kg/d, individual animals, listed as 64281802-AAA
[5] = Study 1+2+3 compiled data, 0,6 mg/kg/d

COc1cc(N[C@H](C(=O)c2c[nH]c3ccc(OC(F)(F)F)cc23)c2ccc(Cl)cc2OC)cc(S(C)(=O)=O)c1 [JNJ-1802]
CC50 [1]: 12700 nM | pEC50 (INF-A Taiwan/1/86): < 5.59 | pEC50 (INF-A Taiwan/1/86; read-out: EC50, Mean): < 4.60 | EC90 (INF-A Taiwan/1/86; read-out: EC90, Mean): > 25000 nM | pEC50 (HIV-1 IIIB): 5.80 | pEC50 (NS3–NS4B interaction; L94F): […] | pEC50 (NS3–NS4B interaction; T108I): […] | pEC50 (NS3–NS4B interaction; V91A): […] | pEC50 (NS3–NS4B interaction; WT): […] | effect on NS3–NS4B complexes (NS3–NS4B interaction; time of addition): […] | pEC50 ([2]; Dengue virus, read-out: EC50 2k-4B Input, Mean, WT): 8.76 | 2K-NS4B proportion in lysate ([2]; L94F, 10 nM): 18.25% and 11.99% and 16.55% | 2K-NS4B proportion in lysate ([2]; L94F, 500 nM): 4.03% and 6.25% and 1.49% | NS4A-2K-NS4B proportion in lysate ([2]; L94F, 500 nM): 75.65% and 50.22% and 78.28% | 2K-NS4B proportion in lysate ([2]; L94F, 1000 nM): 3.64% and 2.91% and 2.22% | NS4A-2K-NS4B proportion in lysate ([2]; L94F, 1000 nM): 77.84% and 43.16% and 74.46% | pEC50 ([2]; L94F, read-out: EC50 2k-4B Input, Mean): 6.97 | 2K-NS4B proportion in lysate ([2]; T108I, 0.5 nM): 23.11% and 13.79% and 13.87% | NS4A-2K-NS4B proportion in lysate ([2]; T108I, 0.5 nM): 44.71% and 43.02% and 68.40% | NS4A-2K-NS4B proportion in lysate ([2]; T108I, 1 nM): 72.39% and 47.37% and 49.13% | 2K-NS4B proportion in lysate ([2]; T108I, 5 nM): 9.35% and 15.53% and 10.95% | NS4A-2K-NS4B proportion in lysate ([2]; T108I, 5 nM): 71.83% and 55.33% and 51.65% | NS4B proportion in lysate ([2]; T108I, 5 nM): 18.83% and 29.14% and 37.41% | 2K-NS4B proportion in lysate ([2]; T108I, 10 nM): […] | NS4A-2K-NS4B proportion in lysate ([2]; T108I, 10 nM): 71.88% and 68.85% and 55.44% | NS4B proportion in lysate ([2]; T108I, 10 nM): 23.02% and 22.91% and 33.72% | 2K-NS4B proportion in lysate ([2]; T108I, 50 nM): 3.79% and 3.62% and 3.12% | NS4A-2K-NS4B proportion in lysate ([2]; T108I, 50 nM): 72.18% and 59.64% and 51.99% | NS4B proportion in lysate ([2]; T108I, 50 nM): 24.02% and 36.74% and 44.89% | pEC50 ([2]; T108I, single replicates, read-out: EC50 (2k-4B), Input): 8.22 and 8.16 and 7.68 | pEC50 ([2]; T108I, read-out: EC50 2k-4B Input, Mean): 7.95 | 2K-NS4B proportion in lysate ([2]; V91A, 10 nM): 18.41% and 10.69% and 19.20% | 2K-NS4B proportion in lysate ([2]; V91A, 50 nM): 12.06% and 15.08% and 7.29% | 2K-NS4B proportion in lysate ([2]; V91A, 100 nM): […] | 2K-NS4B proportion in lysate ([2]; V91A, 500 nM): 2.16% and 3.56% and 1.47% | NS4A-2K-NS4B proportion in lysate ([2]; V91A, 500 nM): 73.60% and 43.02% and 80.18% | 2K-NS4B proportion in lysate ([2]; V91A, 1000 nM): 2.06% and 2.88% and 1.78% | pEC50 ([2]; V91A, single replicates, read-out: EC50 (2k-4B), Input): 7.35 and 6.87 and 7.25 | pEC50 ([2]; V91A, read-out: EC50 2k-4B Input, Mean): 7.11 | 2K-NS4B proportion in lysate ([2]; WT, 0.5 nM): […] | NS4A-2K-NS4B proportion in lysate ([2]; WT, 0.5 nM): 48.09% and 36.63% and 65.93% | 2K-NS4B proportion in lysate ([2]; WT, 1 nM): 5.60% and 9.33% and 12.10% | NS4A-2K-NS4B proportion in lysate ([2]; WT, 1 nM): 66.81% and 44.14% and 43.57% | NS4B proportion in lysate ([2]; WT, 1 nM): 27.59% and 46.53% and 44.33% | 2K-NS4B proportion in lysate ([2]; WT, 5 nM): 3.71% and 6.95% and 6.88% | NS4A-2K-NS4B proportion in lysate ([2]; WT, 5 nM): 60.94% and 43.36% and 51.87% | NS4B proportion in lysate ([2]; WT, 5 nM): 35.35% and 49.69% and 41.25% | 2K-NS4B proportion in lysate ([2]; WT, 10 nM): 3.62% and 6.23% and 4.49% | NS4A-2K-NS4B proportion in lysate ([2]; WT, 10 nM): 59.94% and 47.30% and 50.84% | NS4B proportion in lysate ([2]; WT, 10 nM): 36.44% and 46.47% and 44.67% | 2K-NS4B proportion in lysate ([2]; WT, 50 nM): 5.23% and 6.22% and 5.06% | NS4A-2K-NS4B proportion in lysate ([2]; WT, 50 nM): 53.55% and 57.44% and 58.39% | NS4B proportion in lysate ([2]; WT, 50 nM): 41.22% and 36.34% and 36.55% | pEC50 ([2]; read-out: EC50 (2k-4B), Input, WT, single replicates): 9.31 and 9.21 and 8.39 | viraemia day 3 p.i., average Log 10 (DENV-2 RL strain; 0,3 mg/kg/d q.d.): 6.63 log10 viral RNA copies/mL | viraemia day 3 p.i., median Log 10 (DENV-2 RL strain; 0,3 mg/kg/d q.d.): […] | viraemia day 3 p.i., average Log 10 (DENV-2 RL strain; 3 mg/kg/d q.d.): 3.84 log10 viral RNA copies/mL | viraemia day 3 p.i., median Log 10 (DENV-2 RL strain; 3 mg/kg/d q.d.): 4.27 log10 viral RNA copies/mL | mice with undetectable viral RNA (DENV-2 RL strain; 20 mg per kg per day b.i.d.): 13 out of 14 | mice with undetectable viral RNA (DENV-2 RL strain; 30 mg per kg q.d.): five out of eight | viraemia day 3 p.i., average Log 10 (DENV-2 RL strain; 30 mg/kg/d q.d.): 3.09 log10 viral RNA copies/mL | viraemia day 3 p.i., median Log 10 (DENV-2 RL strain; 30 mg/kg/d q.d.): 2.59 log10 viral RNA copies/mL | mice with undetectable viral RNA (DENV-2 RL strain; 60 mg per kg per day b.i.d.): four out of seven | Av Log 10 (average) (DENV-2 RL strain; [3]): 5.92 | Av Log 10 (Ave/Med: median) (DENV-2 RL strain; [3]): 6.05 | Copy number (DENV-2 RL strain; [4]): 1.86E+06 and 1.20E+06 and 1.13E+06 and 8.80E+05 and 2.24E+05 and 2.37E+06 and 1.58E+06 and 7.37E+04 and 5.97E+06 and 8.67E+05 and 1.42E+06 and 1.06E+06 and 9.43E+04 | Log 10 (copy number) (DENV-2 RL strain; [4]): […] | Av Log 10 (average) (DENV-2 RL strain; [5]): 4.22 | Av Log 10 (Ave/Med: median) (DENV-2 RL strain; [5]): […] | Copy number (DENV-2 RL strain; Study 1+2+3 compiled data, 0,6 mg/kg/d, individual animals, listed as 64281802-AAA): 3.93E+02
